US10160744B2, “Quinoline compounds suitable for treating disorders that respond to the modulation of the serotonin 5-HT6 receptor” (Abbvie Deutschland GmbH & Co. KG, priority 2016, dated 2018)

Legend:
h-5-HT6 receptor = target: T1, h-5-HT6 receptor (Homo sapiens, UniProt P50406); test: 5-HT6 receptor binding assay (displacement of [3H]-LSD); details: cloned human 5-HT6 receptor, HEK293 membranes, 1 nM [3H]-LSD
T1 construct: expressed in transfected cells
Protocol: Displacement of radioligands binding to the following cloned human receptors
1. Preparation of Membranes by Ultrasonic Treatment and Differential Centrifugation
Cells from stable clonal cell lines expressing the corresponding receptor (5-HT6, α1-adrenergic, dopamine D2 or histamine H1 receptors) were washed with PBS (w/o Ca^++, Mg^++) and harvested in PBS with 0.02% EDTA. The cells were collected by centrifugation at 500 g for 10 min. at 4° C., washed with PBS and centrifuged (500 g, 10 min. 4° C.). The pellets were stored at −80° C. until use. For membrane preparation, the thawed cell pellet was resuspended in ice-cold sucrose buffer (0.25 M sucrose, 10 mM Hepes (pH 7.4), 1 mM Phenylmethylsulfonyl fluoride (PMSF) in DMSO, 5 μg/ml Pepstatin-A, 3 mM EDTA, 0.025% Bacitracin) and homogenized with a Branson Sonifier W-250 (Settings: Timer 4; Output Control 3; Duty Cycle constant; 2 to 3 cycles). Cell disruption was checked with the aid of a microscope. Remaining unbroken cells were pelleted at 1.000 g for 10 min. at 4° C. The sucrose buffer supernatant was then centrifuged at 60.000 g for 1 h at 4° C. (Beckman Ultrazentrifuge XL 80). The pellet was resuspended in 30 ml ice-cold Tris buffer (20 mM TRIS (pH 7.4), 5 μg/ml Pepstatin A, 0.1 mM PMSF, 3 mM EDTA) by pipetting through a 10 ml serological pipet and centrifuged for 1 h at 4° C. at 60.000 g. A final resuspension was performed in a small volume of ice-cold Tris buffer (see above) by pressing through a serological pipet followed by ultrasonic treatment with a Branson Sonifier W-250 (Settings: Timer 1; Output Control 3; Duty Cycle constant; 1 cycle). Protein concentration was determined (BCA-Kit; Pierce) and aliquots stored at −80° C. or in liquid nitrogen for long-term storage.
2. Receptor Binding Experiments
All receptor binding experiments were carried out in the corresponding assay buffer in a total volume of 200 μl in the presence of various concentrations of test compound (10^−5 M to 10^−9 M, tenfold serial dilution, duplicate determinations). The assays were terminated by filtration on polyethylenimine (PEI 0.1% or 0.3%) presoaked Packard Unifilter Plates (GF/C or GF/B) with a Tomtec MachIII U 96 well-plate harvester. After the plates had been dried for 2 h at 55° C. in a drying chamber scintillation cocktail (BetaPlate Scint; PerkinElmer) was added. Radioactivity was measured in a Microbeta Trilux two hours after the addition of the scintillation mixture. Data derived from liquid scintillation counting were analysed by iterative non-linear regression analysis with the use of the Statistical Analysis System (SAS): a program similar to “LIGAND” as described by Munson and Rodbard (Analytical Biochemistry 107, 220-239 (1980).
a) 5-HT6 Receptor Binding Assay
HEK293 cells stably expressing the h-5-HT6 receptor (NCBI Reference Sequence XM 001435) were cultured in RPMI1640 medium supplemented with 25 mM HEPES, 10% fetal calf serum and 1-2 mM glutamine. The membrane preparation was performed as described in section 1. […] Non-specific binding was defined with 1 μM methiothepin. The binding reaction was carried out for 3.5 h at room temperature. During the incubation, the plates were shaken on a plate shaker at 100 rpm and terminated by filtration on Packard Unifilter GF/C (0.1% PEI) plates, followed by 2 wash cycles with ice-cold 50 mM Tris-HCl, 5 mM CaCl2.
Data derived from liquid scintillation counting were analyzed by iterative non-linear regression analysis with the use of the Statistical Analysis System (SAS): a program similar to “LIGAND” as described by Munson and Rodbard (Anal. Biochem. 1980, 107, 220-239). Fitting was performed according to formulae described by Feldman (Anal. Biochem. 1972, 48, 317-338). IC50, nH and Ki values were expressed as geometrical mean.

[1] = Metabolic stability in human liver microsomes (microsomal clearance); type: in vitro ADME; details: pH 7.4; human liver microsomes 0.25 mg protein/mL, 0.5 μM compound, NADPH, 37° C.; read-out: mClint
Protocol: Samples of the tested compounds (0.5 μM) were preincubated together with human liver microsomes (0.25 mg of microsomal protein/mL) in 0.05 M potassium phosphate buffer of pH 7.4 in microtiter plates at 37° C. for 5 minutes. The reaction was started by adding NADPH (1.0 mM). After 0, 5, 10, 15, 20 and 30 minutes, an aliquot was removed, the reaction was cooled and stopped by adding twice the amount of quench solution consisting of acetonitrile/methanol 1:1, and containing 0.2 μM carbutamide as internal standard. The samples were frozen until analyzed. The remaining concentration of undegraded test substance was determined by liquid chromatography-tandem mass spectrometry (LC-MS/MS). The half-life (t1/2) was determined from the gradient of the ratio of the signal of (test substance/internal standard)/unit time plot, allowing the calculation of the half-life of the test substance, assuming first order kinetics, from the decrease in the concentration of the compound with time. The microsomal clearance (mClint) was calculated as follows: mClint=((ln(2)/t 1/2)/Microsomal Protein Concentration (mg/ml))*1000, leading to the unit of μL/min/mg.

T1 sequence (P50406 whole entry): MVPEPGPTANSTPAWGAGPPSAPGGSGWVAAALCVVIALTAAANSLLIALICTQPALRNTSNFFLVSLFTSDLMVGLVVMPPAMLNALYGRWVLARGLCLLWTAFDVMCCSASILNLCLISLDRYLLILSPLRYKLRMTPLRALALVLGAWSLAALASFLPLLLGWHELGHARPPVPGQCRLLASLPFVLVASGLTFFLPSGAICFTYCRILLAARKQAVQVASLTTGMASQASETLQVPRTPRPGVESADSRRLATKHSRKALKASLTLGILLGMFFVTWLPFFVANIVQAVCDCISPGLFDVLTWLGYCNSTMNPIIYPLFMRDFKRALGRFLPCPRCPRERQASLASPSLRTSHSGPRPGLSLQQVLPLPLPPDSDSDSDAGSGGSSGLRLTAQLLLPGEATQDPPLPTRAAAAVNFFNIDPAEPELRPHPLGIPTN

Ki (h-5-HT6 receptor) [nM]	microsomal CLint at 0.5 μM [1] [µL/min/mg]	SMILES
< 10	60 to 120	O=S(=O)(c1cccc(C(F)(F)F)c1)c1cnc2c(N3CCC[C@@H](O)C3)cccc2c1 [Example 5, (R)-1-[3-(3-Trifluoromethyl-benzenesulfonyl)-quinolin-8-yl]-piperidin-3-ol]
< 10	30 to 60	O=S(=O)(c1cccc(F)c1)c1cnc2c(N3CCC[C@@H](O)C3)cccc2c1 [Example 20, (3R)-1-[3-(3-Fluorophenyl)sulfonyl-8-quinolyl]piperidin-3-ol]
